{"source": "patent US7196110B2", "about": "“N-substituted tricyclic 3-aminopyrazoles as inhibitors for the treatment of cell proliferative disorders” (Janssen Phamaceutica N.V., priority 2002, dated 2007)", "molecular_target": "T1, PDGF-receptor beta enzyme comprising the tyrosine kinase domain (Homo sapiens, UniProt P09619)", "T1 construct": "from amino acid 545 to 1106 of GenBank Access NO: AAA36427", "T1 sequence (P09619 545-1106)": "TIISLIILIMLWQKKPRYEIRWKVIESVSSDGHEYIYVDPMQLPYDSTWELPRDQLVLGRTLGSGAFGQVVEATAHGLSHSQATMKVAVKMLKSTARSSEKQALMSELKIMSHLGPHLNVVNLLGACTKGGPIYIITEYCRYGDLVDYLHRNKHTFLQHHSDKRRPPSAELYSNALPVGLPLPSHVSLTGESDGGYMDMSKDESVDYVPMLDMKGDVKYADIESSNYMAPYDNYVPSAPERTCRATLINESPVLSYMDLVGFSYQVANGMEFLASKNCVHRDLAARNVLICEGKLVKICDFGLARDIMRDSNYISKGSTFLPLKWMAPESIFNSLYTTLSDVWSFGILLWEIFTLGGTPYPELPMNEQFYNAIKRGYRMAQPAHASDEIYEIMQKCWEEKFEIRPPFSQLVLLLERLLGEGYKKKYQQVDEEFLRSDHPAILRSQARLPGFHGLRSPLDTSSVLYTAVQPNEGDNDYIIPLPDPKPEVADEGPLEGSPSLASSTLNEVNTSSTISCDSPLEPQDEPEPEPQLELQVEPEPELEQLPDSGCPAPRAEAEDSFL", "assay": "Inhibition of PDGF-receptor kinase activity (cell-free, PLC1 peptide, 33P Flashplate)", "format": "biochemical", "settings": "PDGF-R kinase activity; for inhibition at 10 µM: compound at 10 uM, read-out: Percent Inhibition @ 10 uM; for IC50: read-out: IC50", "procedure": "PDGF-R kinase activity was assayed by its ability to phosphorylate one of its target proteins, PLCγ, in a cell-free system, in particular, a PLC1 peptide comprising the tyrosine residue where the phosphorylation occurs was used for the assay.\n10× Kinase Buffer (500 mM Tris-HCl pH=8, 100 mM MgCl2, 1 mM Na3VO4); 10 mM DTT (final concentration at 1 mM in assay); 10 mM ATP (final concentration at 5 μM in assay); ^33P-γ-ATP (Cat. No.: NEG/602H. 2000-3000 Ci/mmol) purchased from NEN; Purified, soluble, recombinant PDGF-receptor beta enzyme comprising the tyrosine kinase domain (from amino acid 545 to 1106 of GenBank Access NO: AAA36427 ) at 0.4 mg/mL; Enzyme Dilution Buffer (50 mM Tris-HCl pH=8.0, 0.1% BSA); Wash/Stop Buffer (PBS +100 mM EDTA); NEN Streptavidin Flashplates (Cat. No.: SMP-103) which binds to the biotinylated PLC1 peptide but not the PDGF-R enzyme; PLC1 peptide (Biotin-[…]-Amide) at 1 mM in 50 mM Tris-HCL with pH of 8.0.\nReagents were first mixed according the following regimen:\nThe above reaction mixture was dispensed into each well of a Flashplate at 70 μl/well. To test the effect of a compound on PDGF-R kinase activity, the test compound either in a fixed concentration or in serially diluted concentrations in 100% DMSO was added to appropriate wells at 1 μl/well.\nEnzyme PDGF-R was diluted in Enzyme dilution buffer as following:\nThe kinase reaction was initiated by adding 30 μl of diluted PDGF-R enzyme solution to each well on the Flashplate containing hot ATP and PLC1, except wells of column 12 rows E through H, which were used to calculate the plate background. The Flashplate was swirled to mix and was incubated at 30° C. for 60 minutes. Then, the reaction mixture was discarded and the Flashplate was washed 3 times each with 200 μl Wash/Stop Buffer. Subsequently, each well on the Flashplate was filled with 200 μl of Wash/Stop buffer. The amount of ^33P retained in each well was measured using a Packard TopCount after the plate was sealed with a transparent plate sealer.\nThe percentage of inhibition of the test compound on PDGF-R kinase activity is defined as […].\nIn order to test the potency of inhibition of present compounds, an IC50 for an individual compound was measured using the above procedure. As used herein, the IC50 for PDGF-R kinase activity refers to the concentration of an inhibitor at which the activity of the PDGF-R kinase is reduced by one-half as compared with reactions containing no inhibitor.", "data": [{"smiles": "Cc1cccc2c1Cc1c-2n[nH]c1Nc1ccccc1", "note": "[Compound 23, (5-Methyl-2,4-dihydro-indeno[1,2-c]pyrazol-3-yl)-phenyl-amine]", "values": [{"measurement": "inhibition at 10 µM", "value": 87, "unit": "%"}, {"measurement": "IC50", "value": 1940, "unit": "nM"}]}, {"smiles": "Fc1ccc2c(c1)Cc1c-2n[nH]c1Nc1ccccc1", "note": "[Compound 24, (6-Fluoro-2,4-dihydro-indeno[1,2-c]pyrazol-3-yl)-phenyl-amine]", "values": [{"measurement": "inhibition at 10 µM", "value": 71, "unit": "%"}, {"measurement": "IC50", "value": 84, "unit": "nM"}]}, {"smiles": "COc1cc2c(cc1OC)-c1n[nH]c(Nc3ccc(C(F)(F)F)cc3)c1C2", "note": "[Compound 25, (6,7-Dimethoxy-2,4-dihydro-indeno[1,2-c]pyrazol-3-yl)-(4-trifluoromethyl-phenyl)-amine]", "values": [{"measurement": "inhibition at 10 µM", "value": 62, "unit": "%"}, {"measurement": "IC50", "value": 4770, "unit": "nM"}]}, {"smiles": "COc1ccccc1Nc1[nH]nc2c1Cc1cc(OC)c(OC)cc1-2", "note": "[Compound 27, (6,7-Dimethoxy-2,4-dihydro-indeno[1,2-c]pyrazol-3-yl)-(2-methoxy-phenyl)-amine]", "values": [{"measurement": "inhibition at 10 µM", "value": 71, "unit": "%"}, {"measurement": "IC50", "value": 655, "unit": "nM"}]}, {"smiles": "COc1cc2c(cc1OC)-c1n[nH]c(Nc3ccccc3C(F)(F)F)c1C2", "note": "[Compound 28, (6,7-Dimethoxy-2,4-dihydro-indeno[1,2-c]pyrazol-3-yl)-(2-trifluoromethyl-phenyl)-amine]", "values": [{"measurement": "inhibition at 10 µM", "value": 96, "unit": "%"}, {"measurement": "IC50", "value": 19100, "unit": "nM"}]}, {"smiles": "COc1cc2c(cc1OC)-c1n[nH]c(Nc3ccccc3C)c1C2", "note": "[Compound 31, (6,7-Dimethoxy-2,4-dihydro-indeno[1,2-c]pyrazol-3-yl)-o-tolyl-amine]", "values": [{"measurement": "inhibition at 10 µM", "value": 59, "unit": "%"}, {"measurement": "IC50", "value": 115, "unit": "nM"}]}, {"smiles": "COc1cc2c(cc1OC)-c1n[nH]c(Nc3ccc(C)cc3)c1C2", "note": "[Compound 33, (6,7-Dimethoxy-2,4-dihydro-indeno[1,2-c]pyrazol-3-yl)-p-tolyl-amine]", "values": [{"measurement": "inhibition at 10 µM", "value": 59, "unit": "%"}, {"measurement": "IC50", "value": 1410, "unit": "nM"}]}, {"smiles": "COc1cc2c(cc1OC)-c1n[nH]c(Nc3cc(Cl)ccc3Cl)c1C2", "note": "[Compound 34, (2,5-Dichloro-phenyl)-(6,7-dimethoxy-2,4-dihydro-indeno[1,2-c]pyrazol-3-yl)-amine]", "values": [{"measurement": "inhibition at 10 µM", "value": 57, "unit": "%"}, {"measurement": "IC50", "value": 6990, "unit": "nM"}]}, {"smiles": "O=C1c2ccccc2-c2n[nH]c(Nc3ccccc3)c21", "note": "[Compound 35, 3-Phenylamino-2H-indeno[1,2-c]pyrazol-4-one]", "values": [{"measurement": "inhibition at 10 µM", "value": 88, "unit": "%"}, {"measurement": "IC50", "value": 2060, "unit": "nM"}]}, {"smiles": "COc1cc2c(cc1OC)-c1n[nH]c(Nc3ccc4cn[nH]c4c3)c1C2", "note": "[Compound 37, (6,7-Dimethoxy-2,4-dihydro-indeno[1,2-c]pyrazol-3-yl)-(1H-indazol-6-yl)-amine]", "values": [{"measurement": "inhibition at 10 µM", "value": 80, "unit": "%"}, {"measurement": "IC50", "value": 1980, "unit": "nM"}]}, {"smiles": "COc1cc2c(cc1OC)-c1n[nH]c(Nc3ccc(N(C)C)cc3)c1C2", "note": "[Compound 40]", "values": [{"measurement": "inhibition at 10 µM", "value": 63, "unit": "%"}, {"measurement": "IC50", "value": 5950, "unit": "nM"}]}, {"smiles": "COc1cc2c(cc1OC)-c1n[nH]c(Nc3cc(OC)c(OC)c(OC)c3)c1C2", "note": "[Compound 42, (6,7-Dimethoxy-2,4-dihydro-indeno[1,2-c]pyrazol-3-yl)-(3,4,5-trimethoxy-phenyl)-amine]", "values": [{"measurement": "inhibition at 10 µM", "value": 85, "unit": "%"}, {"measurement": "IC50", "value": 692, "unit": "nM"}]}, {"smiles": "COc1cc2c(cc1OC)-c1n[nH]c(Nc3ccccc3Br)c1C2", "note": "[Compound 43, (2-Bromo-phenyl)-(6,7-dimethoxy-2,4-dihydro-indeno[1,2-c]pyrazol-3-yl)-amine]", "values": [{"measurement": "inhibition at 10 µM", "value": 60, "unit": "%"}, {"measurement": "IC50", "value": 195, "unit": "nM"}]}, {"smiles": "COc1cc2c(cc1OC)-c1n[nH]c(Nc3ccc(Br)cc3)c1C2", "note": "[Compound 45, (4-Bromo-phenyl)-(6,7-dimethoxy-2,4-dihydro-indeno[1,2-c]pyrazol-3-yl)-amine]", "values": [{"measurement": "inhibition at 10 µM", "value": 86, "unit": "%"}, {"measurement": "IC50", "value": 2160, "unit": "nM"}]}, {"smiles": "COc1cc2c(cc1OC)-c1n[nH]c(Nc3cc(Cl)ccc3C)c1C2", "note": "[Compound 46, (5-Chloro-2-methyl-phenyl)-(6,7-dimethoxy-2,4-dihydro-indeno[1,2-c]pyrazol-3-yl)-amine]", "values": [{"measurement": "inhibition at 10 µM", "value": 51, "unit": "%"}, {"measurement": "IC50", "value": 14200, "unit": "nM"}]}, {"smiles": "COc1ccc(Nc2[nH]nc3c2Cc2cc(OC)c(OC)cc2-3)c(OC)c1", "note": "[Compound 47, (6,7-Dimethoxy-2,4-dihydro-indeno[1,2-c]pyrazol-3-yl)-(2,4-dimethoxy-phenyl)-amine]", "values": [{"measurement": "inhibition at 10 µM", "value": 47, "unit": "%"}]}]}
